Consider three compounds from patent publication US10316008B2, “KCNQ potassium channel agonist, and preparation method therefor and use thereof” (SHANGHAI INSTITUTE OF MATERIA MEDICA, CHINESE ACADEMY OF …, priority 2014, dated 2019).

In data set [1] the test system is motor coordination ability of mice. The experiment in a line: Rotarod experiment, motor coordination ability (acute neurotoxicity). The format is in vivo, KM mice. Conditions: for P.I (Protective index)=TD50/ED50: TD50 Rotarod / ED50 MES. The procedure: YLS-4C Rotarod system was used in the experiment, wherein the diameter of the rod was 3 cm and the rotate speed was set at 6 rpm. Healthy KM mice (SPF level) were selected, wherein male and female were equal, the body weight was 18 to 22 g. One day before experiment, the mice were place on the rotarod for training and screening. The tail tip of mice was held to make them creep on the rotarod during the training. […] The mice that jumped on the rotarod or griped the rotarod were weed out. In addition, three time periods were set with 1 min for each. […] The qualified mice were randomly caged according to the gender, and allowed to eat and drink freely.
On the day of the experiment, each compound to be tested was freshly formulated by the same method as described in MES experiment. If the compound was not sufficiently suspended, the suspension was further mixed by ultrasonication for 20 min so as to make the compound sufficiently suspended. […] 30 mins after administration, Rotarod experiment was performed and the experiment parameters were the same as the above. The number of mice that fell off from the rorarod was recorded, and the influence of each compound on motor coordination ability of mice was analyzed. The curve for dose of each compound verse motor deficit (percentage) of mice for each compound was obtained according to the analysis of Graphpad Prism 5 software and was shown in FIG. 4.
For orientation: The rotarod test checks motor coordination on a turning rod.

For data set [2], the system named is convulsive mice induce by MES. The experiment in a line: MES (maximum electroshock) induced convulsion model, oral perfusion. Type of data set: in vivo, KM mice. The following applies: for efficacy against MES compared with RTG / ED50: mice; for ED50: Mus musculus, 0.5 h, oral perfusion, MES 30 mins after administration, read-out: ED50 (50% effective dose); for protective effect on convulsive mice induce by MES: orally administered. An excerpt: YLS-9A model physiological pharmaceutical electronic stimulator was used in the experiment to induce convulsion of mice, and specific parameters were set as follows: configuration 8, stimulating voltage: 160V, period of stimulation: 5.4 sec. Healthy KM mice (SPF level, male, body weight: 18 to 22 g) were selected for the experiment. After the ear tip of the mice was sufficiently wetted with physiological saline, the mice was electrically stimulated once with ear clip electrode, and tonic hind-limb seizure was deemed as indication of convulsion. The mice were screened one day before the experiment to weed out the dead mice and the ones without generalized tonic seizure. The qualified mice were caged randomly with access to water at liberty. Before the experiment started, the mice were fasted for 8 h.
The compounds to be tested were freshly formulated on the day of experiment. RTG hydrochloride was dissolved with ultrapure water to obtain a solution with desired concentration. K41.HCl and K43.HCl were formulated with 5% DMSO+95% of 1% Tween80, that is, a proper amount of the compound to be tested was weighted and, first, sufficiently dissolved in 5% DMSO, and then added with a desire volume of 1% Tween80 to be sufficiently suspended to form a suspension with a certain drug concentration. The mice screened one day before were randomly grouped with each group having 10 mice, marked, weighted and then administered with the compound to be tested or solvent (5% DMSO+95% (1% Tween 80)) by oral perfusion with administered volume of 0.2 ml/10 g. The dose range for each compound was 1 to 56 mg/kg for RTG, 1 to 40 mg/kg for K41.HCl, and 0.5 to 4 mg/kg for K43.HCl. 30 mins after administration, MES experiment was performed and the experimental parameters were the same as the above. The number of mice with generalized tonic-clonic convulsion in each group was recorded, the protection rate of each of the compounds to be tested on convulsive mice induce by MES was calculated and dose-response curve for each compound was plotted. The dose-response curve for each compound was obtained according to the analysis of Graphpad Prism 5 software, as shown in FIG. 3.

The nature of data set [3]: Pharmacokinetics and distribution in brain tissue in mice. The format is in vivo, ICR mice. Conditions: for Kp: brain/plasma, read-out: AUC0-t ratio (brain/plasma); for Kp / Cmax / Tmax / half-life / MRT inf / AUC(0-inf) / AUC0-t / clearance / Vd / AUC0-∞: mice; for MRT inf: read-out: MRT0-∞; for Vd: read-out: Vss; for bioavailability: oral, ICR mice, intragastric perfusion 5 mg/kg vs intravenous 2 mg/kg, read-out: F (oral bioavailability). The procedure:
K43.HCl was formulated to a 0.5 mg/ml solution for intragastric perfusion by using 5% DMSO/5% Tween80/[…] physiological saline; to a 0.2 mg/ml solution for intravenous injection by diluting the above solution for intragastric perfusion with physical saline containing 1% Tween 80.
84 healthy ICR mice (male, body weight, 18-20 g) were fasted for 8 h with access to water at liberty before the experiment. The mice were fed at the same time 2 h after administration of the compound.
After administration by intragastric perfusion, mice were sacrificed by cutting abdominal aorta at the time points set as the above with 3 mice for each time point. 0.5 mL of whole blood was collected for each animal, placed into a heparinized test tube and subjected to centrifugation at 11000 rpm for 5 min to separate plasma, which was then cryopreserved in a −20° C. refrigerator. After the animal was sacrificed, its whole brain was collected, washed with ice-cooled physiological saline to remove residual blood, absorbed to dryness, labeled and cryopreserved in a −20° C. refrigerator. After administration by intravenous injection, 0.5 mL of venous blood was collected from venous plexus behind eyeball, placed into a heparinized test tube and subjected to centrifugation at 11000 rpm for 5 min to separate plasma, which was then cryopreserved in a −20° C. refrigerator. The concentration of each compound in plasma and brain tissue was determined by LC-MS/MS.
Pharmacokinetic parameters after administration were calculated according to the obtained data of plasma concentration, using the non-compartmental model of Phoenix 1.3 software (Pharsight Co., USA).

Setting [4] is: male, ICR, mouse, po, intragastric perfusion 5 mg/kg.
Setting [5] is: male, ICR, mouse, po, intragastric perfusion 5 mg/kg, brain.
The mark [6] stands for this setting: male, ICR, mouse, po, intragastric perfusion 5 mg/kg, plasma.
Where [7] appears, read: male, ICR, mouse, po, intragastric perfusion 5 mg/kg, plasma, read-out: AUC0-t.
Setting [8] is: male, ICR, mouse, intravenous injection 2 mg/kg, plasma.
[9] abbreviates: male, ICR, mouse, intravenous injection 2 mg/kg, plasma, read-out: AUC0-t.
Where [10] appears, read: intragastric perfusion 5 mg/kg, brain.

“Also recorded” adds a separate entry of the source. Structures can show the parent of a compound that is named as a salt. Where two headings read alike, the source gives them in different places. Where only a bound is given, the exact number is not on record here.

For the compound `C#CCN(Cc1ccc(F)cc1)c1cc(C)c(NC(=O)OC)c(C)c1` [Compound K43, methyl 4-(N-parafluorobenzyl-N-propargyl-amino)-2,6-dimethylphenylaminoformate], the “neurotoxicity compared with RTG” value in data set [1] was “weaker neurotoxicity than RTG”. For the same compound, in data set [2], the “efficacy against MES compared with RTG” value is reported as “higher than that of RTG; also recorded: superior to that of RTG”. In data set [3] (setting [4]), the Kp was at least 7.
What is called ED50 is the dose at which the effect has come halfway, by size or by number of responders. For orientation: Cmax means the maximum level reached in the sampled fluid or tissue. In general, Tmax refers to the time at which the peak concentration occurs. For orientation: half-life means the time needed for the level to fall by half in the phase considered. Low values mean fast loss, high ones slow loss. The AUC(0-inf) is the area under the concentration-time curve extrapolated to infinity. Higher therefore signals high exposure. Usually clearance stands for the volume of plasma or blood freed of the substance per unit of time. Read a high clearance as a high capacity for elimination. The term bioavailability denotes dose-corrected exposure relative to a reference, in per cent. For `C#CCN(Cc1ccc(F)cc1)c1ccc(NC(=O)OC)c(C)c1` [K41•HCl], in data set [1], the “neurotoxicity compared with RTG” value is “weaker neurotoxicity than RTG” and the “P.I (Protective index)=TD50/ED50” value turned out to be 21.54. Moreover, in data set [2], the ED50 stood at 4.8 mg/kg and the “protective effect on convulsive mice induce by MES” value is “dose dependent protective effect”. In addition, in data set [2] (listed as K31), the “efficacy against MES compared with RTG” value is “higher than that of RTG”. In addition, in data set [2] (listed as k41), the “efficacy against MES compared with RTG” value is on record as “superior to that of RTG”. In data set [3] (setting [4]), the Kp was determined as 2.6. In addition, in data set [3] (setting [5]), the Cmax stood at 1470 ng/g, the Tmax turned out to be 15 min, the half-life was 37.8 min and the MRT inf is 66 min. Moreover, in data set [3] (setting [6]), the AUC(0-inf) was 654 ng·h/mL, the peak level (Cmax) was 606 ng/mL, the Tmax was found to be 15 min and the half-life is 38.4 min. Further, the MRT inf in data set [3] (setting [6]) stood at 62.4 min. For the same compound, the AUC0-t in data set [3] (setting [7]) stood at 646 ng·h/mL. Also, in data set [3] (setting [8]), the AUC(0-inf) amounted to 294 ng·h/mL, the clearance is 114 mL/min/kg, the half-life is 29.4 min and the MRT inf stood at 27 min. Besides, the Vd in data set [3] (setting [8]) was found to be 3.04 L/kg. Further, the AUC0-t in data set [3] (setting [9]) is 281 ng·h/mL. Besides, the bioavailability in data set [3] (male, mouse, plasma) amounted to 91.9%. Further, in data set [3] (setting [10]), the AUC0-t is 1680 ng·h/g and the “AUC0-∞” value was determined as 1684 ng·h/g.
In the case of `C#CCN(Cc1ccc(F)cc1)c1cc(C)c(NC(=O)OC)c(C)c1.Cl` [K43•HCl, methyl 4-(N-parafluorobenzyl-N-propargyl-amino)-2,6-dimethylphenylaminoformate hydrochloride], in data set [1], the “P.I (Protective index)=TD50/ED50” value worked out at 95.25. In data set [2], the ED50 was found to be 1.6 mg/kg and the “protective effect on convulsive mice induce by MES” value is listed as “dose dependent protective effect”. In addition, the Kp in data set [3] (setting [4]) stood at 7.2. Also, in data set [3] (setting [5]), the Cmax turned out to be 1430 ng/g, the Tmax was 15 min, the half-life is 63.6 min and the MRT inf turned out to be 77.4 min. In data set [3] (setting [6]), the AUC(0-inf) worked out at 189 ng·h/mL, the Cmax was 350 ng/mL, the Tmax worked out at 15 min and the half-life was 37.2 min. Besides, the MRT inf in data set [3] (setting [6]) was found to be 56.4 min. Further, the AUC0-t in data set [3] (setting [7]) worked out at 184 ng·h/mL. In data set [3] (setting [8]), the AUC(0-inf) was 334 ng·h/mL, the clearance is 100 mL/min/kg, the half-life is 24 min and the MRT inf worked out at 25.8 min. In addition, the Vd in data set [3] (setting [8]) was found to be 2.61 L/kg. Besides, the AUC0-t in data set [3] (setting [9]) worked out at 326 ng·h/mL. Besides, in data set [3] (male, mouse, plasma), the bioavailability is 22.5%. Also, in data set [3] (setting [10]), the AUC0-t was 1329 ng·h/g and the “AUC0-∞” value turned out to be 1346 ng·h/g.
